Assays:
Type in all cases: cell-based, human
[1] = system: NOX activity (superoxide formation in cells); assay: Nitroblue tetrazolium (NBT) test of intracellular and extracellular superoxide in cell cultures; conditions: DPI 10 μM, 'usually'
Description: The activity of the compounds according to the invention may be tested for their activity in the inhibition or reduction of formation of reactive oxygen species (ROS) from oxygen in cells. The activity of the compounds is tested in the following cell cultures by different techniques such as nitroblue tetrazolium, Amplex Red, Chemiluminescence (Luminol) and 2′,7′-dichlorodihydrofluorescein diacetate (H2DCF-DA) according to the protocols detailed below.
Human microglia cell line (HMC3, human microglia clone 3) (Janabi et al, 1995, Neurosci Lett 195:105) were cultured in MEM (Eagle's minimum essential medium) containing 10% FBS with 50 U/mL penicillin G sodium 50 μg/mL streptomycin sulfate, and incubated at 37° C. for 24 hours. IFN-γ (human IFN-γ, Roche. 11 040 596 001) was added to the culture medium for a final concentration of 10 ng/mL 24 h, before detection of O2^− formation. […]
Intracellular and extracellular superoxide was measured by a colorimetric technique using a quantitative nitroblue tetrazolium (NBT) test. SOD-inhibitable conversion of NBT to formazan, a fine blue precipitate, in the presence of superoxide anion was measured using Fluostar Optima spectrometer (BMG labtech). […] The absorption was measured at 630 nm. For calculation, the absorbance at 630 nm was normalized for each individual well. […] NOX activities were expressed as % of the activity in control cells. […]

[2] = system: NOX activity (ROS in cells); assay: Chemiluminescence (luminol) measurement of ROS in cells; conditions: 'usually'
Description: 3. Chemiluminescence (Luminol)
ROS was measured using the chemiluminescent probe luminol. Cells were cultured and plated as for Amplex Red except that the Amplex Red agent was replaced by 10 μg/mL luminol (Sigma 09235). Light emission was recorded continuously at 37° C. for 60 minutes using the luminescence function of the FluoStar Optima fluorescent plate reader. The mean of the four blank values was subtracted from each corrected value for each time point. NOX activities were expressed as % of the activity in control cells. Residual activity of DPI-treated cells was usually <10%.

NOX activity in HUVEC = assay: H2DCF-DA (DCF fluorescence) ROS measurement in TGF-β stimulated HUVEC; conditions: 'usually'
Description: Human Umbilical Vein Endothelial Cells (HUVEC)
HUVEC are cultured in endothelial basal medium supplemented with hydrocortisone (1 μg/mL, CalbioChem), bovine brain extract (12 μg/mL), gentamicin (50 μg/mL, CalbioChem), amphotericin B (50 ng/mL, CalBioChem EGF (10 ng/mL, and 10% FCS until the fourth passage. When the fifth passage was started, cells were cultured with a lower concentration of FCS (2%) in the absence of EGF, if not indicated otherwise. All experiments were done with cells of the fifth passage. The cells were incubated with OxLDL (oxidized low-density lipoprotein) or its buffer as control for 24 h, before detection of O2^− formation.
4. 2′,7′-dichlorodihydrofluorescein diacetate (H2DCF-DA)
HUVEC were plated on coverslips and made quiescent overnight in 0.5% BSA before stimulation with TGF-β. Cells were loaded for 10 minutes with 5 μM CM-H2DCFDA in phenol-red-free medium in the dark and then treated with TGF-β (R&D Systems) in the presence or absence of compounds according to the invention. […] DCF fluorescence was visualized at an excitation wavelength of 488 nm and emission at 515 to 540 nm. […] For calculation, the absorbance at […] was normalized to absorbance at […] for each individual well. […] NOX activities were expressed as % of the activity in control cells. […]

[3] = system: NOX activity in DMSO-differentiated HL60 cells; assay: Amplex Red measurement of extracellular hydrogen peroxide (NOX activity) in DMSO-differentiated HL60 cells; conditions: DPI 10 μM, 'usually'
Description: Human acute myeloid leukemia cell line HL-60 was cultured in RPMI 1640 (Invitrogen) supplemented with 10% heat-inactivated calf serum, 2 mM glutamine, 100 U/mL penicillin (Sigma), and 100 μg streptomycin (Sigma) at 37° C. under a humidified atmosphere of 5% CO2. HL60 differentiation to the neutrophil phenotype was triggered by adding Me2SO (final concentration 1.25% v/v for 6 days) to the culture medium.
Extracellular hydrogen peroxide was measured using Amplex UltraRed (Molecular Probes). Cells were trypsinized (1× Trypsin-EDTA), collected by centrifugation, and resuspended in HBSS supplemented with 1% glucose. Cells were seeded into black 96-well plates at a density of 50'000 cells in 200 μl testing buffer (HBSS 1% glucose containing 0.005 U/mL horseradish peroxidase (Roche) and 50 μM Amplex Red in the presence or absence of compounds according to the invention. As a control, DPI was included at a final concentration of 10 μM The plates were placed in the fluorescent Optima Fluorescent plate reader and kept at 37° C. during 20 min. Fluorescence was measured for […] with excitation and emission wavelengths of 544 and 590 nm respectively. NOX activities were expressed as % of the activity in control cells. […]
The table 1 below summarizes the percentage of inhibition of NOX activity as measured by Amplex Red using DMSO-differentiated HL60 cells as described above: […]

Measured: Residual activity of DPI-treated cells (NOX activity as % of the activity in control cells)

c1ccc([I+]c2ccccc2)cc1 [DPI, Diphenyliodonium]
< 10%: all assays above
